Measured values as given in patent US6737383B1, “Herbicidal oxadiazolidines” (priority 1999, dated 2004).

How the values were obtained:
corn = experiment: Test B pre/postemergence corn; format: in vivo, Zea mays
In short: (§1)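 Response is a visual 0-to-10 score relative to untreated plants, where 0 means no effect and 10 means complete control, taken twelve to sixteen days after application. Treatments went onto soil at planting and onto foliage of 1- to 4-leaf plants, using a surfactant-containing non-phytotoxic solvent.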

velvetleaf = experiment: Test B pre/postemergence velvetleaf; format: in vivo, Abutilon theophrasti
In short: as §1

soybean = experiment: Test B pre/postemergence soybean; format: in vivo, Glycine max
In short: as §1

sugar beet = experiment: Test B pre/postemergence sugar beet; format: in vivo, Beta vulgaris
In short: as §1

giant foxtail = experiment: Test B pre/postemergence giant foxtail; format: in vivo, Setaria faberii
In short: as §1

cocklebur = experiment: Test B pre/postemergence cocklebur; format: in vivo, Xanthium strumarium
In short: as §1

crabgrass = experiment: Test B pre/postemergence crabgrass; format: in vivo, Digitaria sanguinalis
In short: as §1

pigweed = experiment: Test B pre/postemergence pigweed; format: in vivo, Amaranthus retroflexus
In short: as §1

wheat = experiment: Test B pre/postemergence wheat; format: in vivo, Triticum aestivum
In short: as §1

surinam grass = experiment: Test B pre/postemergence surinam grass; format: in vivo, Brachiaria decumbens
In short: as §1

purple nutsedge = experiment: Test B pre/postemergence purple nutsedge; format: in vivo, Cyperus rotundus
In short: as §1

blackgrass = experiment: Test B pre/postemergence blackgrass; format: in vivo, Alopecurus myosuroides
In short: as §1

bedstraw = experiment: Test B pre/postemergence bedstraw; format: in vivo, Galium aparine
In short: as §1

wild oat = experiment: Test B pre/postemergence wild oat; format: in vivo, Avena fatua
In short: as §1

morningglory = experiment: Test B pre/postemergence morningglory; format: in vivo, Ipomoea hederacea
In short: as §1

rape = experiment: Test B pre/postemergence rape; format: in vivo, Brassica napus
In short: as §1

[1] = Preemergence, Rate 62 g/ha, scale of 0 to 10 where 0 is no effect and 10 is complete control
[2] = Preemergence, Rate 125 g/ha, scale of 0 to 10 where 0 is no effect and 10 is complete control
[3] = Preemergence, Rate 250 g/ha, scale 0 to 10 (0 no effect, 10 complete control)
[4] = Preemergence, Rate 500 g/ha, scale of 0 to 10 where 0 is no effect and 10 is complete control
[5] = Postemergence, Rate 62 g/ha, scale 0 to 10, 0 is no effect, 10 is complete control
[6] = Postemergence, Rate 125 g/ha, scale of 0 to 10 where 0 is no effect and 10 is complete control
[7] = Preemergence, Rate 250 g/ha, scale 0 (no effect) to 10 (complete control)
[8] = Rate 250 g/ha, Postemergence, scale 0 to 10, 0 is no effect, 10 is complete control
[9] = Rate 500 g/ha, Postemergence, scale 0 to 10, 0 is no effect, 10 is complete control
[10] = Rate 500 g/ha, Preemergence, scale 0 to 10 (0 no effect, 10 complete control)

Structure (SMILES): CC(C)N(C(=O)n1oc(=O)n(C(C)C(=S)N(C)C)c1=O)c1ccccc1 (stereo not shown) [Compound 704]
- Corn plant response rating (corn; [1]): 0
- Plant response rating, Corn (corn; [2]): 0
- Plant response rating, Corn (corn; [3]): 0
- Velvetleaf plant response rating (velvetleaf; [1]): 0
- Plant response rating, Velvetleaf (velvetleaf; [2]): 0
- Soybean plant response rating (soybean; [1]): 0
- Plant response rating, Soybean (soybean; [2]): 0
- Sugarbeets plant response rating (sugar beet; [1]): 0
- Plant response rating, Sugarbeets (sugar beet; [2]): 3
- Giant foxtail plant response rating (giant foxtail; [1]): 4
- Plant response rating, Giant foxtail (giant foxtail; [2]): 7
- Cocklebur plant response rating (cocklebur; [1]): 0
- Plant response rating, Cocklebur (cocklebur; [2]): 0
- Plant response rating, Cocklebur (cocklebur; [3]): 0
- Plant response rating, Cocklebur (cocklebur; [4]): 0
- Crabgrass plant response rating (crabgrass; [1]): 5
- Plant response rating, Crabgrass (crabgrass; [2]): 8
- Plant response rating, Crabgrass (crabgrass; [3]): 8
- Redroot pigweed plant response rating (pigweed; [1]): 0
- Plant response rating, Redroot pigweed (pigweed; [2]): 5
- Wheat plant response rating (wheat; [1]): 0
- Plant response rating, Wheat (wheat; [2]): 0
- B. signalgrass plant response rating (surinam grass; [1]): 2
- Plant response rating, B. signalgrass (surinam grass; [2]): 5
- Plant response rating, B. signalgrass (surinam grass; [3]): 8
- Plant response rating, B. signalgrass (surinam grass; [4]): 9
- Nutsedge plant response rating (purple nutsedge; [1]): 0
- Plant response rating, Nutsedge (purple nutsedge; [2]): 0
- Blackgrass plant response rating (blackgrass; [1]): 2
- Plant response rating, Blackgrass (blackgrass; [2]): 6
- Plant response rating, Blackgrass (blackgrass; [3]): 10
- Plant response rating, Blackgrass (blackgrass; [4]): 10
- Bedstraw plant response rating (bedstraw; [1]): 0
- Plant response rating, Bedstraw (bedstraw; [2]): 0
- Plant response rating, Bedstraw (bedstraw; [3]): 0
- Wild oats plant response rating (wild oat; [1]): 0
- Plant response rating, Wild oats (wild oat; [2]): 0
- Morningglory plant response rating (morningglory; [1]): 0
- Plant response rating, Morningglory (morningglory; [2]): 0
- Rape plant response rating (rape; [1]): 0
- Plant response rating, Rape (rape; [2]): 0

Structure (SMILES): CC(C)N(C(=O)n1oc(=O)n(CC(F)F)c1=O)c1ccc(F)cc1 [Compound 710]
- Plant response rating, Corn (corn; [5]): 0
- Corn plant response rating (corn; [6]): 0
- Corn plant response rating (corn; [1]): 0
- Plant response rating, Corn (corn; [2]): 0
- Corn plant response rating (corn; [7]): 0
- Corn plant response rating (corn; [8]): 0
- Corn plant response rating (corn; [9]): 2
- Plant response rating, Velvetleaf (velvetleaf; [5]): 5
- Velvetleaf plant response rating (velvetleaf; [6]): 6
- Velvetleaf plant response rating (velvetleaf; [1]): 5
- Plant response rating, Velvetleaf (velvetleaf; [2]): 6
- Velvetleaf plant response rating (velvetleaf; [7]): 7
- Velvetleaf plant response rating (velvetleaf; [8]): 6
- Velvetleaf plant response rating (velvetleaf; [9]): 6
- Plant response rating, Soybean (soybean; [5]): 3
- Soybean plant response rating (soybean; [6]): 4
- Soybean plant response rating (soybean; [1]): 0
- Plant response rating, Soybean (soybean; [2]): 0
- Soybean plant response rating (soybean; [7]): 3
- Soybean plant response rating (soybean; [8]): 4
- Soybean plant response rating (soybean; [9]): 5
- Plant response rating, Sugarbeets (sugar beet; [5]): 0
- Sugarbeets plant response rating (sugar beet; [6]): 0
- Sugarbeets plant response rating (sugar beet; [1]): 6
- Plant response rating, Sugarbeets (sugar beet; [2]): 6
- Sugarbeets plant response rating (sugar beet; [7]): 8
- Sugarbeets plant response rating (sugar beet; [8]): 3
- Sugarbeets plant response rating (sugar beet; [9]): 6
- Plant response rating, Giant foxtail (giant foxtail; [5]): 8
- Giant foxtail plant response rating (giant foxtail; [6]): 8
- Giant foxtail plant response rating (giant foxtail; [1]): 10
- Plant response rating, Giant foxtail (giant foxtail; [2]): 10
- Giant foxtail plant response rating (giant foxtail; [7]): 10
- Giant foxtail plant response rating (giant foxtail; [8]): 9
- Giant foxtail plant response rating (giant foxtail; [9]): 9
- Plant response rating, Cocklebur (cocklebur; [5]): 0
- Cocklebur plant response rating (cocklebur; [6]): 0
- Cocklebur plant response rating (cocklebur; [1]): 0
- Plant response rating, Cocklebur (cocklebur; [2]): 0
- Cocklebur plant response rating (cocklebur; [7]): 0
- Plant response rating, Cocklebur (cocklebur; [4]): 0
- Cocklebur plant response rating (cocklebur; [8]): 0
- Cocklebur plant response rating (cocklebur; [9]): 0
- Plant response rating, Crabgrass (crabgrass; [5]): 8
- Crabgrass plant response rating (crabgrass; [6]): 9
- Crabgrass plant response rating (crabgrass; [1]): 10
- Plant response rating, Crabgrass (crabgrass; [2]): 10
- Crabgrass plant response rating (crabgrass; [7]): 10
- Crabgrass plant response rating (crabgrass; [8]): 9
- Crabgrass plant response rating (crabgrass; [9]): 9
- Plant response rating, Redroot pigweed (pigweed; [5]): 8
- Redroot pigweed plant response rating (pigweed; [6]): 8
- Redroot pigweed plant response rating (pigweed; [1]): 8
- Plant response rating, Redroot pigweed (pigweed; [2]): 8
- Redroot pigweed plant response rating (pigweed; [7]): 10
- Redroot pigweed plant response rating (pigweed; [8]): 9
- Redroot pigweed plant response rating (pigweed; [9]): 9
- Plant response rating, Wheat (wheat; [5]): 0
- Wheat plant response rating (wheat; [6]): 0
- Wheat plant response rating (wheat; [1]): 5
- Plant response rating, Wheat (wheat; [2]): 6
- Wheat plant response rating (wheat; [7]): 7
- Wheat plant response rating (wheat; [8]): 4
- Wheat plant response rating (wheat; [9]): 6
- Plant response rating, B. signalgrass (surinam grass; [5]): 5
- B. signalgrass plant response rating (surinam grass; [6]): 5
- B. signalgrass plant response rating (surinam grass; [1]): 8
- Plant response rating, B. signalgrass (surinam grass; [2]): 8
- B. signalgrass plant response rating (surinam grass; [7]): 8
- Plant response rating, B. signalgrass (surinam grass; [4]): 9
- B. signalgrass plant response rating (surinam grass; [8]): 6
- B. signalgrass plant response rating (surinam grass; [9]): 7
- Plant response rating, Nutsedge (purple nutsedge; [5]): 0
- Nutsedge plant response rating (purple nutsedge; [6]): 0
- Plant response rating, Nutsedge (purple nutsedge; [2]): 0
- Nutsedge plant response rating (purple nutsedge; [7]): 0
- Nutsedge plant response rating (purple nutsedge; [8]): 0
- Nutsedge plant response rating (purple nutsedge; [9]): 3
- Plant response rating, Blackgrass (blackgrass; [5]): 5
- Blackgrass plant response rating (blackgrass; [6]): 6
- Blackgrass plant response rating (blackgrass; [1]): 9
- Plant response rating, Blackgrass (blackgrass; [2]): 9
- Blackgrass plant response rating (blackgrass; [7]): 9
- Plant response rating, Blackgrass (blackgrass; [4]): 10
- Blackgrass plant response rating (blackgrass; [8]): 6
- Blackgrass plant response rating (blackgrass; [9]): 6
- Bedstraw plant response rating (bedstraw; [6]): 1
- Bedstraw plant response rating (bedstraw; [1]): 3
- Plant response rating, Bedstraw (bedstraw; [2]): 3
- Bedstraw plant response rating (bedstraw; [7]): 5
- Plant response rating, Bedstraw (bedstraw; [4]): 7
- Bedstraw plant response rating (bedstraw; [8]): 6
- Bedstraw plant response rating (bedstraw; [9]): 8
- Plant response rating, Wild oats (wild oat; [5]): 1
- Wild oats plant response rating (wild oat; [6]): 3
- Wild oats plant response rating (wild oat; [1]): 8
- Plant response rating, Wild oats (wild oat; [2]): 9
- Wild oats plant response rating (wild oat; [7]): 9
- Wild oats plant response rating (wild oat; [8]): 5
- Wild oats plant response rating (wild oat; [9]): 6
- Plant response rating, Morningglory (morningglory; [5]): 4
- Morningglory plant response rating (morningglory; [6]): 4
- Morningglory plant response rating (morningglory; [1]): 0
- Plant response rating, Morningglory (morningglory; [2]): 0
- Morningglory plant response rating (morningglory; [7]): 0
- Morningglory plant response rating (morningglory; [8]): 4
- Morningglory plant response rating (morningglory; [9]): 8
- Plant response rating, Rape (rape; [5]): 0
- Rape plant response rating (rape; [6]): 0
- Rape plant response rating (rape; [1]): 7
- Plant response rating, Rape (rape; [2]): 8
- Rape plant response rating (rape; [7]): 8
- Rape plant response rating (rape; [8]): 3
- Rape plant response rating (rape; [9]): 5

Structure (SMILES): CC(C)N(C(=O)n1oc(=O)n(C(C)C2CCC2)c1=O)c1ccc(F)cc1 (stereo not shown) [Compound 718]
- Corn plant response rating (corn; [1]): 0
- Plant response rating, Corn (corn; [2]): 0
- Corn plant response rating (corn; [7]): 0
- Corn plant response rating (corn; [10]): 3
- Velvetleaf plant response rating (velvetleaf; [1]): 0
- Plant response rating, Velvetleaf (velvetleaf; [2]): 0
- Velvetleaf plant response rating (velvetleaf; [7]): 0
- Velvetleaf plant response rating (velvetleaf; [10]): 0
- Soybean plant response rating (soybean; [1]): 0
- Plant response rating, Soybean (soybean; [2]): 0
- Soybean plant response rating (soybean; [7]): 0
- Soybean plant response rating (soybean; [10]): 0
- Sugarbeets plant response rating (sugar beet; [1]): 0
- Plant response rating, Sugarbeets (sugar beet; [2]): 0
- Sugarbeets plant response rating (sugar beet; [7]): 2
- Sugarbeets plant response rating (sugar beet; [10]): 2
- Giant foxtail plant response rating (giant foxtail; [1]): 10
- Plant response rating, Giant foxtail (giant foxtail; [2]): 10
- Giant foxtail plant response rating (giant foxtail; [7]): 10
- Giant foxtail plant response rating (giant foxtail; [10]): 10
- Cocklebur plant response rating (cocklebur; [1]): 0
- Plant response rating, Cocklebur (cocklebur; [2]): 0
- Cocklebur plant response rating (cocklebur; [7]): 0
- Cocklebur plant response rating (cocklebur; [10]): 0
- Crabgrass plant response rating (crabgrass; [1]): 9
- Plant response rating, Crabgrass (crabgrass; [2]): 10
- Crabgrass plant response rating (crabgrass; [7]): 10
- Crabgrass plant response rating (crabgrass; [10]): 10
- Redroot pigweed plant response rating (pigweed; [1]): 0
- Plant response rating, Redroot pigweed (pigweed; [2]): 4
- Redroot pigweed plant response rating (pigweed; [7]): 6
- Redroot pigweed plant response rating (pigweed; [10]): 8
- Wheat plant response rating (wheat; [1]): 0
- Plant response rating, Wheat (wheat; [2]): 0
- Wheat plant response rating (wheat; [7]): 0
- Wheat plant response rating (wheat; [10]): 2
- B. signalgrass plant response rating (surinam grass; [1]): 0
- Plant response rating, B. signalgrass (surinam grass; [2]): 2
- B. signalgrass plant response rating (surinam grass; [7]): 7
- B. signalgrass plant response rating (surinam grass; [10]): 9
- Nutsedge plant response rating (purple nutsedge; [1]): 0
- Nutsedge plant response rating (purple nutsedge; [7]): 0
- Nutsedge plant response rating (purple nutsedge; [10]): 0
- Blackgrass plant response rating (blackgrass; [1]): 8
- Plant response rating, Blackgrass (blackgrass; [2]): 9
- Blackgrass plant response rating (blackgrass; [7]): 9
- Blackgrass plant response rating (blackgrass; [10]): 10
- Bedstraw plant response rating (bedstraw; [1]): 0
- Plant response rating, Bedstraw (bedstraw; [2]): 0
- Bedstraw plant response rating (bedstraw; [7]): 0
- Bedstraw plant response rating (bedstraw; [10]): 0
- Wild oats plant response rating (wild oat; [1]): 2
- Plant response rating, Wild oats (wild oat; [2]): 2
- Wild oats plant response rating (wild oat; [10]): 8
- Morningglory plant response rating (morningglory; [1]): 0
- Plant response rating, Morningglory (morningglory; [2]): 0
- Morningglory plant response rating (morningglory; [7]): 0
- Morningglory plant response rating (morningglory; [10]): 0
- Rape plant response rating (rape; [1]): 0
- Plant response rating, Rape (rape; [2]): 0
- Rape plant response rating (rape; [7]): 2
- Rape plant response rating (rape; [10]): 3
